# Values of other authors in patent US9675546B2, “Method of treating atrophic vaginitis” (priority 2006, dated 2017).
# Read-outs that look alike come from different tables or passages of the source.
# Columns and labels:
# [1] = not given; remark: listed apart in the source
# breast cancer risk = conditions: progestogen combined with estrogens in HRT users
# [2] = not given; remark: listed apart in the source
# [3] = single oral dose of 20 mg tamoxifen
Time to steady state concentrations after initiation of therapy ([2]; oral),"Average steady state plasma concentration ([2]; oral, once daily for 3 months) [ng/mL]","Average peak plasma concentration [2, 3] [ng/mL]","Time of peak plasma concentration after dosing [2, 3]",SMILES,Serum concentration (25 mg progesterone vaginal suppository) [ng/mL],Serum concentration (50 mg progesterone vaginal suppository) [ng/mL],Quality of life/menopausal symptoms: women with significant improvement in symptoms ([1]; MP-containing HRT compared with MPA-containing regimen),Cardiovascular Events ([1]; in vivo),Glucose/Insulin ([1]; in vivo),Liver function ([1]; in vivo),Sleep and Mood ([1]; in vivo),Risk of breast cancer (RR) (breast cancer risk),Lipid Profile ([1]; in vivo)
–,–,–,–,"CC(=O)[C@H]1CC[C@H]2[C@@H]3CCC4=CC(=O)CC[C@]4(C)[C@H]3CC[C@]12C [progesterone, pregn-4-ene-3, 20-dione]",7.27,8.84,symptoms in 80%.,MP: has antihypertensive action and can be safely used to treat,MP: augments the pancreatic response to glucose and increases,MP: does not effect liver enzymes or cause livie related side,MP: improves the quality of sleep and has sedative properties.,0.9,–
about 4 weeks,122,40,approximately 5 hours,"CC/C(=C(\c1ccccc1)c1ccc(OCCN(C)C)cc1)c1ccccc1 [tamoxifen, 1-(p-dimethylamino-ethoxphenyl)-2-ethyl-1,2-diphenylethylene]",–,–,–,–,–,–,–,–,–
–,–,–,–,"CC(=O)O[C@]1(C(C)=O)CC[C@H]2[C@@H]3C[C@H](C)C4=CC(=O)CC[C@]4(C)[C@H]3CC[C@@]21C [MPA, Medroxyprogesterone Acetate]",–,–,–,"MPA: may cause fluid retention and edema, increases incidence",MPA: has been found to cause deterioration of glucose tolerance,MPA: contraindicted in patients with liver dysfunction.,"MPA: can cause insomnia, mental depression, and anxiety.",–,MPA: adversely effects lipid profile and negates the beneficial
